Measured values taken from US5998438A, “5-cyclo indole compounds” (Allelix Biopharmaceuticals, Inc., priority 1997, dated 1999).
Where two headings read alike, the source gives them in different places.

Target: T1, 5-HT1D-like receptor (Oryctolagus cuniculus, UniProt P49144)
T1 construct: Ring segments of the vein (4-5 mm in length) were cut and the endothelium gently removed; from tissue; host or cells: saphenous vein rings (endothelium removed) of male New Zealand White rabbits
Test: Agonist assay: contraction of rabbit isolated saphenous vein (5-HT1D-like receptor agonist activity)
Set-up: species or system rabbit (male New Zealand White)

[1] = rabbit isolated saphenous vein ring segments, concentration causing 50% of the maximum contraction effected by the compound, with prazosin, idazoxan and indomethacin, 37° C., pH 7.4, read-out: EC50

T1 sequence (P49144 whole entry): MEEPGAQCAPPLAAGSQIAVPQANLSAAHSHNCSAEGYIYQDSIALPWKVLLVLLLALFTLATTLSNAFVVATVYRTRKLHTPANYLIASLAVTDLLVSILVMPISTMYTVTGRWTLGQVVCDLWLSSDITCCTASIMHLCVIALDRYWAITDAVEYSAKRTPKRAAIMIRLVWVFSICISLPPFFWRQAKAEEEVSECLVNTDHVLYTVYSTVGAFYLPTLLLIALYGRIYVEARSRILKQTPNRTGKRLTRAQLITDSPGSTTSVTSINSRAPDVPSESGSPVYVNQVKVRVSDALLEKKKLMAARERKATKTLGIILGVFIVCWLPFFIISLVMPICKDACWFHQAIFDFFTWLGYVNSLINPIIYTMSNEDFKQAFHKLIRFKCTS

| SMILES | EC50 | EC50 [1] |
| --- | --- | --- |
| CN(C)CCc1c[nH]c2ccc(C3=CCCCC3)cc12 [Example 9a, 5-(Cyclohex-1-en-1-yl)-3-[2-(N,N-dimethylamino)ethyl]-1H-indole] | 0.96 µM | – |
| CN(C)CCc1c[nH]c2ccc(C3CCCCO3)cc12 (centres unmarked) [Example 9b, 3-[2-(N,N-Dimethylamino)ethyl]-5-(tetrahydropyran-2-yl)-1H-indole] | 0.16 µM | – |
| C1=C(c2ccc3[nH]cc(CCN4CCCC4)c3c2)CCN(Cc2ccccc2)C1 [Example 15, 5-(1-Aza-1-benzylcyclohex-3-en-4-yl)-3-(2-pyrrolidinylethyl)-1H-indole] | – | 0.22 µM |
| CN(C)CCc1c[nH]c2ccc(C3CCCCC3)cc12 [Example 17a, 5-Cyclohexyl-3-[2-(N,N-dimethylamino)ethyl]-1H-indole] | 0.25 µM | – |
| CN1CCC[C@H]1Cc1c[nH]c2ccc(C3CCN(C(=O)OC(C)(C)C)CC3)cc12 [Example 17d, (S)-5-(1-Aza-1-tert-butoxycarbonylcyclohex-4-yl)-3-[(N-methylpyrrolidin-2-yl)methyl]-1H-indole] | – | 0.75 µM |
